Experimental findings from paper PMC7269146, “Jingzhaotoxin-X, a gating modifier of Kv4.2 and Kv4.3 potassium channels purified from the venom of the Chinese tarantula Chilobrachys jingzhao” (The Journal of Venomous Animals and Toxins Including …, 2020) are described below.

The target of one test is T1, Kv4.3 (Rattus norvegicus, UniProt Q62897).
T1 construct: expressed in transfected cells; host or cells: HEK293t
T1 sequence (Q62897 1-655): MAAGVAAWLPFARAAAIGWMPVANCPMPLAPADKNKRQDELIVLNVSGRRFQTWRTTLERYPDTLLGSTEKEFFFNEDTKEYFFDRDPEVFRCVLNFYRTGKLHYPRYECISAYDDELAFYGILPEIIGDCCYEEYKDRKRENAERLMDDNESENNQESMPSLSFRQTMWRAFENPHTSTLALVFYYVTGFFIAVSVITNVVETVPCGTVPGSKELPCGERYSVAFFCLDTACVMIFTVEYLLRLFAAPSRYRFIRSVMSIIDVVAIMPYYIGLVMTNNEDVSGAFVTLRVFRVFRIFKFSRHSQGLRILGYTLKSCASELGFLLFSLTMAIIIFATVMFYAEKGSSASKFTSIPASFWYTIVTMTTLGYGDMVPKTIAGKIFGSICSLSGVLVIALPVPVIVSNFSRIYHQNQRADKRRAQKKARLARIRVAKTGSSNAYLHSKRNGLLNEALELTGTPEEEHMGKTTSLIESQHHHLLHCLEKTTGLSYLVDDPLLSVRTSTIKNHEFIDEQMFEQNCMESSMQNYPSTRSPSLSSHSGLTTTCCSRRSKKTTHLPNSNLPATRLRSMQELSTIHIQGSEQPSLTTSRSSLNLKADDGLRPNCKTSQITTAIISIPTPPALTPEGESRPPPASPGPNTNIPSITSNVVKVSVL
In words: whole-cell patch-clamp, Kv4.3 in HEK293t cells, concentration-response and time course. The class given is cell-based. The text has this:
Rat cDNA genes encoding Kv4.2 (Accession: NM_031730.2) and Kv4.3 (Accession: AB003587.1) were subcloned to vector pcDNA3.1. In addition, human cDNA genes encoding Nav1.7 (Accession: DQ857292.1) and Nav1.5 (Accession: AB158469.2) were subcloned to vectors pcDNA3.1-mod and pcDNA3.1, separately. Then, Kv4.2, Kv4.3, Nav1.5 and Nav1.7 constructs were transiently transfected into the human embryonic kidney 293t (HEK293t) cells using lipofectamine 2000 (Invitrogen, USA) in accordance with manufacturer protocols. Thereafter, HEK293 cells were inoculated within Dulbecco’s modified Eagle’s medium (DMEM) containing 10% fetal bovine serum (FBS) at 5% CO2 and 37°C. The Kv4.3 channel and the Kv4.2 counterpart were then transfected in the absence of β subunit. Subsequently, cells were incubated with a DNA-lipofectamine mixture (one reporter plasmid for green fluorescence protein and channel constructs) for 4-6 h, and were washed with the fresh medium.
An EPC-10 patch-clamp amplifier (HEKA, Germany) was employed to record the potassium currents at the configuration of whole-cell patch-clamp under an ambient temperature of 22-25°C. The resistance was 2.0-3.0 MΩ when the recording pipette contained a full volume of internal solution (supplemented with 140 mM KCl, 10 mM HEPES, 2.5 mM MgCl2, 5 mM ATP and 11 mM EGTA). KOH was utilized to adjust the pH to 7.2, while sucrose was employed to adjust the osmolarity to 310 mOsm/L. The culture medium was replaced with an external solution containing 150 mM NaCl, 2.5 mM CaCl2, 10 mM HEPES, 2 mM MgCl2, 5 mM KCl, and 10 mM D-glucose. Similarly, sucrose and NaOH were applied to adjust the osmolarity to 330 mOsm/L and pH to 7.4. […] The series resistance was maintained at about 5 MΩ, with 65-70% compensation. Finally, the leakage currents and linear capacitance were subtracted digitally according to the P/4 protocol. […]
On-rates were determined by fitting time course data with a single exponential decay function (2): y = Ae^-kx + C, where x is the time, A is the normalized current value before the application of toxin (usually 1.0), and C is the final normalized current value following the block by the toxin. The on-rate (τon) was determined from the inverse of the rate constant k.
Off-rates were determined by fitting time course data with a double exponential association function (3): y = A(1-e^-kx) + B(1-e^-fx) + C, where x is the time, A or B is the normalized current value after washout of the toxin (usually 1.0 if complete washout occurred), and C is the normalized current value before the washout of the toxin. The off-rate (τoff) was determined from the inverse of the rate constant k or f.
A general note: The patch-clamp technique gives a direct electrical read-out from membranes.

The next test has as its system HVA Cav channels. Put plainly: whole-cell voltage-clamp, HVA Cav currents of rat DRG neurons. Type of test: cell-based. The conditions noted are these: 10 μM, n = 3.

Where a SMILES comes first, the peptide text is derived from it. Bridges are numbered along the chain shown (N, C = ends).

For the compound `CC(C)C[C@@H]1NC(=O)[C@H](CCCCN)NC(=O)[C@H](Cc2ccc(O)cc2)NC(=O)[C@@H]2CSSC[C@@H]3NC(=O)[C@H](Cc4ccc(O)cc4)NC(=O)[C@H](Cc4ccccc4)NC(=O)CNC(=O)[C@H](C)NC(=O)[C@H](CSSC[C@H](NC(=O)[C@@H](N)CC(C)C)C(=O)N[C@@H](CO)C(=O)N[C@@H](CCCNC(=N)N)C(=O)N[C@@H](CCC(=O)O)C(=O)NCC(=O)N[C@@H](CCC(=O)O)C(=O)N[C@@H](Cc4ccccc4)C(=O)N2)NC(=O)[C@H](CSSC[C@@H](C(=O)N[C@@H](Cc2ccc(O)cc2)C(=O)N[C@@H](CCCNC(=N)N)C(=O)N[C@@H](CC(N)=O)C(=O)O)NC(=O)[C@H](Cc2c[nH]cn2)NC(=O)[C@H](CC(C)C)NC(=O)[C@H](C(C)C)NC(=O)[C@H](Cc2ccccc2)NC(=O)[C@H](C)NC(=O)[C@H](CCCCN)NC3=O)NC(=O)[C@H](CCCCN)NC(=O)[C@H](CCCNC(=N)N)NC1=O` [JZTX-X, Jingzhaotoxin-X] (H-LCSREGEFCYKLRKCCAGFYCKAFVLHCYRN-OH; disulfide 2-16, 9-21, 15-28; N-terminus assumed), the “inhibition of Kv4.3 at resting potential without pulses” value on Kv4.3 (-80 mV, no pulse during first ~100 s of treatment with 200 nM or 500 nM (order Kv4.2, Kv4.3), same as with pulses at 5 s intervals, n = 5) is “approximately 95%”. Further, on Kv4.3 (HEK293t cells, 1 nM-10 μM, 300-ms step to +20 mV from -80 mV, 22-25°C, pH 7.4, Hill equation fit, n = 8, read-out: IC50 for Kv4.3 channels), the half-inhibitory concentration (IC50) – broadly, the point on the concentration scale where inhibition reaches its midpoint – is 210 nM. In addition, at Kv4.3 (HEK293t cells, +20 mV from -80 mV, n = 8), the “Hill Coefficient, Kv4.3” value was 1.17. Moreover, the “reversal of Kv4.3 inhibition after rinsing” value on Kv4.3 (in 3 min following rinsing, high JZTX-X dose, HEK293t cells, n = 6) is greater than 95%. In addition, in the test with HVA Cav channels, the “inhibition of HVA Cav current” value is on record as “less than 5%”.
